From PubChem BioAssay (NCI)
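How tested: cells in 96-well plates exposed to compound for 48 hours at five concentrations. Abbreviation: GI50, concentration required for 50% inhibition of growth. TGI marks complete inhibition of growth.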

Key:
Test in all cases: NCI-60 cell line screen, 48 h
[1] = test system: 786-0 renal
[2] = test system: A498 renal
[3] = test system: A549 NSCLC
[4] = test system: ACHN renal
[5] = test system: BT-549 breast
[6] = test system: CAKI-1 renal
[7] = test system: COLO 205 colon
[8] = test system: DU-145 prostate
[9] = test system: EKVX NSCLC
[10] = test system: HCC-2998 colon
[11] = test system: HCT-116 colon
[12] = test system: HCT-15 colon
[13] = test system: HL-60(TB) leukemia
[14] = test system: HOP-62 NSCLC
[15] = test system: HS 578T breast
[16] = test system: HT29 colon
[17] = test system: IGROV1 ovarian
[18] = test system: K-562 leukemia
[19] = test system: KM12 colon
[20] = test system: LOX IMVI melanoma
[21] = test system: M14 melanoma
[22] = test system: MALME-3M melanoma
[23] = test system: MCF7 breast
[24] = test system: MDA-MB-231 breast
[25] = test system: MDA-MB-435
[26] = test system: MOLT-4 leukemia
[27] = test system: NCI-H460 lung
[28] = test system: NCI-H522 lung
[29] = test system: NCI/ADR-RES ovarian
[30] = test system: OVCAR-3 ovarian
[31] = test system: OVCAR-4 ovarian
[32] = test system: OVCAR-5 ovarian
[33] = test system: OVCAR-8 ovarian
[34] = test system: PC-3 prostate
[35] = test system: RPMI-8226 leukemia
[36] = test system: RXF 393 renal
[37] = test system: SF-268 CNS
[38] = test system: SF-295 CNS
[39] = test system: SF-539 CNS
[40] = test system: SK-MEL-2 melanoma
[41] = test system: SK-MEL-28 melanoma
[42] = test system: SK-MEL-5 melanoma
[43] = test system: SK-OV-3 ovarian
[44] = test system: SN12C renal
[45] = test system: SNB-19 CNS
[46] = test system: SNB-75 CNS
[47] = test system: SW-620 colon
[48] = test system: T-47D breast
[49] = test system: TK-10 renal
[50] = test system: U251 CNS
[51] = test system: UACC-62 melanoma
[52] = test system: UO-31 renal

O=C1NC(=O)C(c2ccccc2)=C1Nc1ccccc1
GI50 [1]: > 25 µM
TGI [1]: > 25 µM
GI50 [2]: > 22.1 µM
TGI [2]: > 25 µM
GI50 [3]: > 25 µM
TGI [3]: > 25 µM
GI50 [4]: > 25 µM
TGI [4]: > 25 µM
GI50 [5]: > 25 µM
TGI [5]: > 25 µM
GI50 [6]: > 25 µM
TGI [6]: > 25 µM
GI50 [7]: > 25 µM
TGI [7]: > 25 µM
GI50 [8]: > 25 µM
TGI [8]: > 25 µM
GI50 [9]: > 25 µM
TGI [9]: > 25 µM
GI50 [10]: > 25 µM
TGI [10]: > 25 µM
GI50 [11]: > 25 µM
TGI [11]: > 25 µM
GI50 [12]: > 25 µM
TGI [12]: > 25 µM
GI50 [13]: > 25 µM
TGI [13]: > 25 µM
GI50 [14]: > 25 µM
TGI [14]: > 25 µM
GI50 [15]: 16.3 µM
TGI [15]: > 25 µM
GI50 [16]: > 25 µM
TGI [16]: > 25 µM
GI50 [17]: > 25 µM
TGI [17]: > 25 µM
GI50 [18]: > 25 µM
TGI [18]: > 25 µM
GI50 [19]: > 25 µM
TGI [19]: > 25 µM
GI50 [20]: > 25 µM
TGI [20]: > 25 µM
GI50 [21]: > 25 µM
TGI [21]: > 25 µM
GI50 [22]: > 25 µM
TGI [22]: > 25 µM
GI50 [23]: > 25 µM
TGI [23]: > 25 µM
GI50 [24]: > 25 µM
TGI [24]: > 25 µM
GI50 [25]: > 25 µM
TGI [25]: > 25 µM
GI50 [26]: > 25 µM
TGI [26]: > 25 µM
GI50 [27]: > 25 µM
TGI [27]: > 25 µM
GI50 [28]: > 25 µM
TGI [28]: > 25 µM
GI50 [29]: > 25 µM
TGI [29]: > 25 µM
GI50 [30]: > 25 µM
TGI [30]: > 25 µM
GI50 [31]: > 25 µM
TGI [31]: > 25 µM
GI50 [32]: > 25 µM
TGI [32]: > 25 µM
GI50 [33]: > 25 µM
TGI [33]: > 25 µM
GI50 [34]: > 25 µM
TGI [34]: > 25 µM
GI50 [35]: > 25 µM
TGI [35]: > 25 µM
GI50 [36]: > 25 µM
TGI [36]: > 25 µM
GI50 [37]: > 25 µM
TGI [37]: > 25 µM
GI50 [38]: > 25 µM
TGI [38]: > 25 µM
GI50 [39]: > 25 µM
TGI [39]: > 25 µM
GI50 [40]: > 25 µM
TGI [40]: > 25 µM
GI50 [41]: > 25 µM
TGI [41]: > 25 µM
GI50 [42]: > 25 µM
TGI [42]: > 25 µM
GI50 [43]: > 25 µM
TGI [43]: > 25 µM
GI50 [44]: > 25 µM
TGI [44]: > 25 µM
GI50 [45]: > 25 µM
TGI [45]: > 25 µM
GI50 [46]: > 25 µM
TGI [46]: > 25 µM
GI50 [47]: > 25 µM
TGI [47]: > 25 µM
GI50 [48]: > 25 µM
TGI [48]: > 25 µM
GI50 [49]: > 25 µM
TGI [49]: > 25 µM
GI50 [50]: > 25 µM
TGI [50]: > 25 µM
GI50 [51]: > 25 µM
TGI [51]: > 25 µM
GI50 [52]: > 25 µM
TGI [52]: > 25 µM
